“Also recorded” adds a separate entry of the source.
Key:
[1] = tested on: F. graminearum CBS 185.32; assay type: cell-based, Fusarium graminearum
[2] = tested on: F. graminearum CBS 185.32; assay type: cell-based, Fusarium graminearum; remark: listed apart in the source
[3] = tested on: Fusarium culmorum and Fusarium graminearum; conditions: cited from earlier work

C G N F L K R T C I C V K K (CGNFLKRTCICVKK) [TickCore3, conserved linear gamma core moiety of the tick defensin DefMT3]
fungal growth / dry fungal biomass (antifungal activity) [1]: significantly inhibited fungal growth at all the concentrations tested | 15-ADON production [2]: non-detectable levels; also recorded: residual levels | DON production [2]: non-detectable levels | inhibition of TCTB mycotoxin production (DON and 15-ADON together) [2]: inhibits the production of category B trichothecenes

C G N F L K R T C I C V T K (CGNFLKRTCICVTK) [TickCore3-K13T]
fungal growth / dry fungal biomass (antifungal activity) [1]: strong antifungal activity only at 50 μM

CGNFLKRTCIC(CH3)VKK [TickCore3-CH3-3 Ox]
fungal growth / dry fungal biomass (antifungal activity) [1]: no effect on fungal growth at any of the concentrations tested | 15-ADON production [2]: significant increase | DON production [2]: significant increase

C G N F L K R T C I C V K T (CGNFLKRTCICVKT) [TickCore3-K14T]
fungal growth / dry fungal biomass (antifungal activity) [1]: strong antifungal activity only at 50 μM

C(CH3)GNFLKRTCRICVKK [TickCore3-CH3-1 Ox]
fungal growth / dry fungal biomass (antifungal activity) [1]: no effect on fungal growth at any of the concentrations tested | 15-ADON levels [2]: significant reduction | DON levels [2]: significant reduction

CGNFLKRTC(CH3)ICVKK [TickCore3-CH3-2 Ox]
fungal growth / dry fungal biomass (antifungal activity) [1]: no effect on fungal growth at any of the concentrations tested | 15-ADON production [2]: did not change significantly | DON production [2]: significant increase

C G N F L K T T C I C V K K (CGNFLKTTCICVKK) [TickCore3-R7T]
fungal growth / dry fungal biomass (antifungal activity) [1]: strong antifungal activity only at 50 μM

DefMT6: tick defensin described in Tonk et al., 2015 (GFGCPLNQGACHNHCRSIKRRGGYCSGIIKQTCTCYRK; DefMT6) [reference compound]
antibacterial and antifungal activity [3]: antibacterial and antifungal activity

GGYYCPFRQDKCHRHCRSFGRKAGYCGNFLKRTCICVKK (DefMT3) [tick defensin, synthesized by SPPS]
antibacterial and antifungal activity [3]: antibacterial and antifungal activity | 15-ADON production [2]: shows inhibitory activity | DON production [2]: shows inhibitory activity

C(CH3)GNFLKRTC(CH3)IC(CH3)VKK [TickCore3-CH3-123]
15-ADON production [2]: significantly less | DON production [2]: significantly less | inhibition of TCTB mycotoxin production (DON and 15-ADON together) [2]: little effect on the inhibitory effect affecting TCTB production

C G N F L T R T C I C V K K (CGNFLTRTCICVKK) [TickCore3-K6T]
fungal growth / dry fungal biomass (antifungal activity) [1]: no antifungal activity below the concentration at 50 μM | inhibition of TCTB mycotoxin production (DON and 15-ADON together) [2]: reduction in the ability to inhibit TCTB production is particularly pronounced

— patent publication US20230157302A1, “METHODS FOR […] MYCOTOXIN PRODUCTION” (Institut National de Recherche Pour L'Agriculture, …, priority 2020, published 2023)
